Test results published in ChEMBL document CHEMBL1201862, “PubChem BioAssay data set” (2004).
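Five concentrations, 48 hours, 96-well plates. GI50 is the concentration that inhibits growth by half.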 Activity calls are given as the source filed them. Rule as the data show it: active = GI50 up to about 1.1 µM and inactive = higher.

How the values were obtained:
Assay in all cases: NCI tumour cell line growth inhibition, 48 h
U-251 = system: U-251
A498 = system: A498
786-0 = system: 786-0
MDA-MB-435 = system: MDA-MB-435
TK-10 = system: TK-10
OVCAR-5 = system: OVCAR-5
SF-539 = system: SF-539
CCRF-CEM = system: CCRF-CEM
MOLT-4 = system: MOLT-4
EKVX = system: EKVX
NCI-H23 = system: NCI-H23
MDA-N = system: MDA-N
M14 = system: M14
PC-3 = system: PC-3
RXF 393 = system: RXF 393
OVCAR-8 = system: OVCAR-8
NCI-H226 = system: NCI-H226
OVCAR-3 = system: OVCAR-3
SR = system: SR
UACC-62 = system: UACC-62
SF-268 = system: SF-268
HCT-116 = system: HCT-116
Malme-3M = system: Malme-3M
HOP-62 = system: HOP-62
MDA-MB-231 = system: MDA-MB-231
SK-MEL-2 = system: SK-MEL-2
HT-29 = system: HT-29
HOP-92 = system: HOP-92
HL-60 = system: HL-60
SN12C = system: SN12C
HCT-15 = system: HCT-15
NCI/ADR-RES = system: NCI/ADR-RES
NCI-H522 = system: NCI-H522
LOX IMVI = system: LOX IMVI
IGROV-1 = system: IGROV-1
KM12 = system: KM12
A549 = system: A549
OVCAR-4 = system: OVCAR-4
CAKI-1 = system: CAKI-1
SK-OV-3 = system: SK-OV-3
SK-MEL-5 = system: SK-MEL-5
SK-MEL-28 = system: SK-MEL-28
Hs-578T = system: Hs-578T
RPMI-8226 = system: RPMI-8226
NCI-H460 = system: NCI-H460
UACC-257 = system: UACC-257
COLO 205 = system: COLO 205
MCF7 = system: MCF7
ACHN = system: ACHN
BT-549 = system: BT-549
K562 = system: K562
SNB-19 = system: SNB-19
DU-145 = system: DU-145
T47D = system: T47D
SF-295 = system: SF-295
UO-31 = system: UO-31
SW-620 = system: SW-620

## NCCC(N)C(=O)O (stereo unspecified)
U-251
  GI50: > 100 µM (inactive)
A498
  GI50: > 100 µM (inactive)
786-0
  GI50: > 100 µM (inactive)
MDA-MB-435
  GI50: > 100 µM (inactive)
TK-10
  GI50: > 100 µM (inactive)
OVCAR-5
  GI50: > 100 µM (inactive)
SF-539
  GI50: > 100 µM (inactive)
CCRF-CEM
  GI50: > 100 µM (inactive)
MOLT-4
  GI50: > 100 µM (inactive)
EKVX
  GI50: > 100 µM (inactive)
NCI-H23
  GI50: > 100 µM (inactive)
MDA-N
  GI50: > 100 µM (inactive)
M14
  GI50: > 100 µM (inactive)
PC-3
  GI50: > 100 µM (inactive)
RXF 393
  GI50: > 100 µM (inactive)
OVCAR-8
  GI50: > 100 µM (inactive)
NCI-H226
  GI50: > 100 µM (inactive)
OVCAR-3
  GI50: > 100 µM (inactive)
SR
  GI50: > 100 µM (inactive)
UACC-62
  GI50: > 100 µM (inactive)
SF-268
  GI50: > 100 µM (inactive)
HCT-116
  GI50: > 100 µM (inactive)
Malme-3M
  GI50: > 100 µM (inactive)
HOP-62
  GI50: > 100 µM (inactive)
MDA-MB-231
  GI50: > 100 µM (inactive)
SK-MEL-2
  GI50: > 100 µM (inactive)
HT-29
  GI50: > 100 µM (inactive)
HOP-92
  GI50: > 100 µM (inactive)
HL-60
  GI50: > 100 µM (inactive)
SN12C
  GI50: > 100 µM (inactive)
HCT-15
  GI50: > 100 µM
NCI/ADR-RES
  GI50: > 100 µM (inactive)
NCI-H522
  GI50: > 100 µM (inactive)
LOX IMVI
  GI50: > 100 µM (inactive)
IGROV-1
  GI50: > 100 µM (inactive)
KM12
  GI50: > 100 µM (inactive)
A549
  GI50: > 100 µM (inactive)
OVCAR-4
  GI50: > 100 µM (inactive)
CAKI-1
  GI50: > 100 µM (inactive)
SK-OV-3
  GI50: > 100 µM (inactive)
SK-MEL-5
  GI50: > 100 µM (inactive)
SK-MEL-28
  GI50: > 100 µM (inactive)
Hs-578T
  GI50: > 100 µM (inactive)
RPMI-8226
  GI50: > 100 µM (inactive)
NCI-H460
  GI50: > 100 µM (inactive)
UACC-257
  GI50: > 100 µM (inactive)
COLO 205
  GI50: > 100 µM (inactive)
MCF7
  GI50: > 100 µM (inactive)
ACHN
  GI50: > 100 µM (inactive)
BT-549
  GI50: > 100 µM (inactive)
K562
  GI50: > 100 µM (inactive)
SNB-19
  GI50: > 100 µM (inactive)
DU-145
  GI50: > 100 µM (inactive)
T47D
  GI50: > 100 µM (inactive)
SF-295
  GI50: > 100 µM (inactive)
UO-31
  GI50: > 100 µM (inactive)
SW-620
  GI50: > 100 µM (inactive)

## CC(=O)n1cc(OP(=O)(Oc2ccccc2)Oc2ccccc2)c2ccccc21
U-251
  GI50: 33.5 µM (inactive)
A498
  GI50: 54 µM (inactive)
786-0
  GI50: 32.1 µM (inactive)
MDA-MB-435
  GI50: 17.9 µM (inactive)
TK-10
  GI50: 50.6 µM (inactive)
SF-539
  GI50: 15.8 µM (inactive)
CCRF-CEM
  GI50: 22.9 µM (inactive)
MOLT-4
  GI50: 16.9 µM (inactive)
NCI-H23
  GI50: 33.3 µM (inactive)
MDA-N
  GI50: 27.6 µM (inactive)
M14
  GI50: 18.9 µM (inactive)
PC-3
  GI50: 10.3 µM (inactive)
OVCAR-8
  GI50: 39.7 µM (inactive)
NCI-H226
  GI50: 27.7 µM (inactive)
OVCAR-3
  GI50: 24.2 µM (inactive)
SR
  GI50: 10.9 µM (inactive)
UACC-62
  GI50: 16.9 µM (inactive)
SF-268
  GI50: 19.7 µM (inactive)
HCT-116
  GI50: 21.4 µM (inactive)
Malme-3M
  GI50: 36.4 µM (inactive)
MDA-MB-231
  GI50: 24.8 µM (inactive)
SK-MEL-2
  GI50: 22.2 µM (inactive)
HT-29
  GI50: 36 µM (inactive)
HL-60
  GI50: 16 µM (inactive)
SN12C
  GI50: 29.2 µM (inactive)
HCT-15
  GI50: 29 µM
NCI/ADR-RES
  GI50: 16.7 µM (inactive)
LOX IMVI
  GI50: 23.2 µM (inactive)
IGROV-1
  GI50: 8.53 µM (inactive)
KM12
  GI50: 35.6 µM (inactive)
A549
  GI50: 32.4 µM (inactive)
OVCAR-4
  GI50: 29.6 µM (inactive)
CAKI-1
  GI50: 13.1 µM (inactive)
SK-MEL-5
  GI50: 19 µM (inactive)
SK-MEL-28
  GI50: 29.3 µM (inactive)
Hs-578T
  GI50: 40.8 µM (inactive)
RPMI-8226
  GI50: 19.2 µM (inactive)
NCI-H460
  GI50: 22.6 µM (inactive)
UACC-257
  GI50: 25.7 µM (inactive)
COLO 205
  GI50: 13.2 µM (inactive)
MCF7
  GI50: 10.1 µM (inactive)
BT-549
  GI50: 34.4 µM (inactive)
K562
  GI50: 23.2 µM (inactive)
SNB-19
  GI50: 58.9 µM (inactive)
DU-145
  GI50: 72.3 µM (inactive)
T47D
  GI50: 32.7 µM (inactive)
SF-295
  GI50: 38.9 µM (inactive)
UO-31
  GI50: 22.1 µM (inactive)
SW-620
  GI50: 44.2 µM (inactive)
